Literature values, collected in US20140127179A1, “Natural Killer Cell Formulations” (SCIENTIFIC FORMULATIONS, LLC, priority 2012, published 2014).
Where two headings read alike, the source gives them in different places.

Tests used:
[1] = system: Human promyelocytic leukemia cells HL60; conditions: HL60 cultured with 30 nM for three years, injected into nu/nu mice
3T3-SV40 fibroblasts = conditions: for fibroblast sensitivity to lytic activity of NKC: in several hours, NAC 10 mM
[2] = system: Natural Killer cells (NKC); design: key: +: Increased NK cell activity was shown; ±: mixed results; conditions: summary of literature studies
metastases = conditions: NAC administered with haemin and IL-2
[3] = system: transformed and embryonic cells
NK cell activity [4] = conditions: combinations of 1 mM thioproline and NAC, 5 μM Vitamin C and vitamin E; all ages studied
cancer cells = system: cancer cells; design: key: +: Direct Anti-cancer Activity was shown; conditions: direct anti-cancer activity, summary of literature studies
[5] = 42 men, 300 μg of Se
tumor cells = conditions: inhibited platelet aggregation
[6] = doses up to 5,000 mg
[7] = system: interferon-gamma-producing NK cell; conditions: nutritional intake of 10 mg
[8] = system: NK cell activity of peripheral mononuclear cells
NK cell activity [9] = conditions: 7 days after the drug injection
[10] = system: lymphokine-activated killer (LAK) cell; conditions: PPS, MPS and LEN, the three combined; P<0.01
[11] = system: NK cell and ADCC activity; conditions: CLL patients, from 0.01 to 1 microgram/ml
NK cell function = conditions: two weeks of high-dose treatment, cancer patients

Molecule: C=C1/C(=C\C=C2/CCC[C@]3(C)[C@@H]([C@H](C)CCCC(C)(C)O)CC[C@@H]23)C[C@@H](O)C[C@@H]1O [1,25 D3, 1,25-dihydroxyvitamin D3]
- tumor growth [1]: reduced rate of tumor growth

Molecule: O=C(O)CCCCC1CCSS1 (stereo not drawn) [ALA, Alpha-Lipoic Acid]
- fibroblast sensitivity to lytic activity of NKC (3T3-SV40 fibroblasts): reduced significantly
- NKC Activity [2]: ±

Molecule: COc1cc(/C=C/C(=O)CC(=O)/C=C/c2ccc(O)c(OC)c2)ccc1O [Curcumin]
- NKC Activity [2]: +

Molecule: O=c1c(-c2ccc(O)cc2)coc2cc(O)cc(O)c12 [Geinstein, Genistein]
- NKC Activity [2]: +

Molecule: CC(C)=CCC[C@](C)(O)[C@H]1CC[C@]2(C)[C@@H]1[C@H](O)C[C@@H]1[C@@]3(C)CC[C@H](O[C@@H]4O[C@H](CO)[C@@H](O)[C@H](O)[C@H]4O)C(C)(C)[C@@H]3CC[C@]12C [Ginsenoside Rh2]
- growth of B16 melanoma cells (B16 melanoma cells; mouse, in vivo): inhibits
- NK cell activity in spleen cells (B16 melanoma cells; tumor-bearing nude mice): increases

Molecule: CC(=O)N[C@@H](CS)C(=O)O [NAC, N-Acetyl-Cysteine]
- decrease in metastases (metastases): 63%
- susceptibility of transformed and embryonic cells to NK cell activity ([3]; 10 mM): loss of susceptibility
- susceptibility of murine embryonic fibroblasts (MEFs) to NK cell activity ([3]; pretreated with 10 mM): lose their susceptibility
- response to NK cell activity after removal of the antioxidant (3T3-SV40 fibroblasts; 18-20 h after NAC removal): resistance to NK cell activity
- sensitivity to lysis by NKC mouse splenocytes (3T3-SV40 fibroblasts; 18-20 h cultivation, 10 mM): did not change their sensitivity
- fibroblast sensitivity to lytic activity of NKC (3T3-SV40 fibroblasts): did not change it
- NK cell activity (NK cell activity [4]): enhancement
- NKC Activity [2]: +

Molecule: Oc1ccc(C=Cc2cc(O)cc(O)c2)cc1 [Resveratrol]
- NKC Activity [2]: +
- Anti-Cancer (cancer cells): +

Molecule: [Se] [Selenium]
- counts of NKC and T lymphocytes expressing both sub-units of IL2R [5]: increased counts
- NKC Activity [2]: +
- Anti-Cancer (cancer cells): +

Molecule: O=C1O[C@H]([C@@H](O)CO)C(O)=C1O [Vitamin C, Ascorbic acid]
- increase of NK cell cytotoxicity (tumor cells): 285%
- NK cell activity (NK cell activity [4]): enhancement
- NKC function of survivors versus baseline (end-stage cancers; 16 survivors, p<0.01): significantly higher
- patients still alive (end-stage cancers; as of a mean of 6 months): 16/20
- NKC Activity [2]: +
- mutagenic lesions; negative effects on NK cell activity, apoptosis or cell cycle [6]: did not induce mutagenic lesions nor had negative effects
- Anti-Cancer (cancer cells): +

Molecule: C=C1CC[C@H](O)C/C1=C/C=C1\CCC[C@]2(C)[C@@H]([C@H](C)CCCC(C)C)CC[C@@H]12 [Vitamin D3]
- NKC Activity [2]: +
- Anti-Cancer (cancer cells): +

Molecule: [Zn] [Zinc]
- NKC Activity [2]: +
- quantity of interferon-gamma-producing NK cell [7]: increases
- Anti-Cancer (cancer cells): +

Molecule: O=C(O)[C@@H]1CSCN1 [thioproline]
- NK cell activity (NK cell activity [4]): enhancement

Molecule: Lentinan
- interferon level in the peripheral blood circulation ([8]; cancer patients, 12 h following administration): elevated
- NK cell activity of peripheral mononuclear cells ([8]; cancer patients, in 48 h): enhanced
- patients with increased NK cell activity of lymphocytes ([8]; n=11, i.v. 2 mg, on the following day): four
- NK cell activity (NK cell activity [9]): significantly enhanced
- reduction of the dose of rIL-2 needed to have the same LAK activity [10]: 50%
- NKC Activity [2]: +
- enhancement of NK cell and ADCC activity [11]: dose-related increase
- Anti-Cancer (cancer cells): +

Molecule: Vitamin E
- NK cell function (NK cell function): enhanced
- NK cell activity (NK cell activity [4]): enhancement
- NKC Activity [2]: +
- Anti-Cancer (cancer cells): +
